Experiments:
[1] = test system: cleaved caspase 3, 7, 9 and PARP in A2780 cells; experiment: Immunoblotting analysis, apoptosis pathway; assay type: cell-based, human; settings: 72 h
Experimental: (§1) To have a more complete understanding of the cellular response induced by 2 or 4, their mode of cell killing was evaluated. Many clinically approved cancer drugs exert their cytotoxic effects through apoptosis, and so the features related to this pathway were monitored. Apoptotic cells underwent morphological changes that lead to cell membrane disorientation. […] Cells can undergo other forms of cell death such as necrosis and autophagy. To probe these pathways, cytotoxicity assays were carried out in the presence of […], chloroquine, and IM-54, respectively. Because both chloroquine and IM-54 had little effect on the potency of either of the osmium complexes, necrosis and autophagy were ruled out as possible death pathways. […] On the other hand, 4 initiated ER stress, culminating in p53 independent, caspase directed apoptosis (FIG. 4).
(§2) A2780 cells (5×10^5 cells) were incubated with the osmium complexes (concentrations, μM) for 72 h at 37° C. […] After incubation with horseradish peroxidase-conjugated secondary antibodies (Cell Signalling Technology), immune complexes were detected with the ECL detection reagent (BioRad) and analyzed using an Alpha Innotech ChemiImager™ 5500 fitted with a chemiluminescence filter.

[2] = test system: genomic DNA from A2780 cells; experiment: Intracellular DNA osmium content; assay type: cell-based, human; settings: 10 μM, 12 h
Experimental: To gain further insight into the modes of action of 2 and 4, immunoblotting analyses were conducted to monitor changes in expression of biomarkers related to the DNA damage pathway (FIG. 8). […] This difference could be related to steric effects imposed by the phenyl groups in 4.
To measure the amount osmium on genomic DNA, ca. 1 million A2780 cells were treated with 10 μM of the complexes at 37° C. for 12 h. Then the media were removed, the cells were washed with PBS solution (1 mL×3), harvested, and centrifuged. The cellular pellet was suspended in DNAzol (1 mL, genomic DNA isolation reagent, MRC). The DNA was precipitated with ethanol (0.5 mL), washed with 75% ethanol (0.75 mL×3), and re-dissolved in 200 μL of 8 mM NaOH. The DNA concentration was determined by UV-visible spectroscopy, and osmium was quantified by GFAAS. The reported values are the average of at least three independent experiments with the error reported as the standard deviation.

[3] = test system: phosphorylated eIF2α and CHOP in A2780 cells; experiment: Immunoblotting analysis, unfolded protein response; assay type: cell-based, human; settings: 72 hours
Experimental: This finding led to the investigation of the possibility that 4 may induce endoplasmic reticulum (ER) stress. Co-administration of 4 and salubrinal (10 μM), a known ER stress inhibitor, reduced the cytotoxicity of 4 in A2780 cells. […] To further validate the ER as the main target for 4, the expression of proteins related to the unfolded protein response (UPR) was monitored. […] ER membrane expansion is widely associated with ER stress. With this fact in mind the ER size of A2780 cells upon incubation with 4 were examined using fluorescence microscopy. Relative to untreated controls (FIG. 3B), cells exposed to 4 (10 μM) for 4 h had 25.1% larger ER coverage (FIG. 3C). The ER size relative to the whole cell of the untreated controls was about 30% and the ER size relative to the whole cell of the treated samples was about 55%.
as §2, with “C. Cells were washed with PBS, scraped into SDS-PAGE loading buffer (64 mM Tris-HCl (pH6.8)/9.6% glycerol/2% SDS/5% β-mercaptoethanol/0.01% Bromophenol Blue), and incubated at 95° C. for 10 min.” for “C.”

A2780 cells = experiment: Dual Annexin V staining/PI flow cytometry assay; assay type: cell-based, human; settings: 72 hours
Experimental: as §1
In order to monitor the cell cycle, flow cytometry studies were carried out. […] DNA content was measured on a FACSCalibur-HTS flow cytometer (BD Biosciences) using laser excitation at 488 nm and 20,000 events per sample were acquired. Cell cycle profiles were analysed using the ModFit software. […] The samples were kept on ice prior to being read on the FACSCalibur-HTS flow cytometer (BD Biosciences) and 20,000 events per sample were acquired. Cell populations were analysed using the FlowJo software (Tree Star).

[4] = Water-octanol partition coefficient (log P), shake-flask method with GF-AAS; assay type: physicochemical; settings: room temperature, 50 μM
Experimental: Those of ordinary skill in the art would be knowledgeable of methods of determining the water-octanol partition coefficient of compounds. For example, the log P of a compound may be obtained using the shake-flask method and graphite furnace atomic absorption spectroscopy (GF-AAS). Briefly, in the shake-flask method, octanol is pre-saturated with water by overnight incubation with shaking of a biphasic mixture of the two at room temperature. A portion of 0.5 mL water containing 50 μM of the given compound is incubated with the pre-saturated octanol (0.5 mL) in a 1.5 mL tube. The tube is shaken at room temperature for 3 hours. The two phases are separated by centrifugation and the osmium content (concentration) in each phase is determined by GFAAS. The log P is then calculated using the formula below: log P=log 10[(concentration of osmium in the octanol layer)/(concentration of osmium in the water layer)].
The log P values were obtained using the shake-flask method and graphite furnace atomic absorption spectroscopy (GF-AAS). Octanol used in this experiment was pre-saturated with water by overnight incubation with shaking of a biphasic mixture of the two at room temperature. A portion of 0.5 mL water containing 50 μM of the given compound was incubated with the pre-saturated octanol (0.5 mL) in a 1.5 mL tube. The tube was shaken at room temperature for 3 h. The two phases were separated by centrifugation and the osmium content (concentration) in each phase was determined by GFAAS. All the experiments were carried out in triplicate. The log P was then calculated using the formula below: Log P=log 10[(conc. of osmium in the octanol layer)/(conc. of osmium in the water layer)].

| Compound | expression of apoptosis positive proteins [1] | Os/DNA ratio on genomic DNA [2] | phosphorylated eIF2α and CHOP expression [3] | occurrence of apoptosis (Annexin V/PI) (A2780 cells) | log P (water-octanol coefficient) [4] |
| --- | --- | --- | --- | --- | --- |
| [N]#[Os]1([Cl])([Cl])([Cl])[N]2C=CC=c3ccc4c(c32)[N]1C=CC=4 [Complex 2, OsN(1,10-phenanthroline)Cl3] | expressed apoptosis positive proteins, cleaved caspase 3, 7, 9, and poly ADP ribose polymerase (PARP) | about 21 pmol/μg | little effect | induced large populations of cells to undergo early and late stage apoptosis | 1.26 |
| [N]#[Os]1([Cl])([Cl])([Cl])[N]2C=CC(c3ccccc3)=c3ccc4c(c32)[N]1C=CC=4c1ccccc1 [Complex 4, OsN(4,7-diphenyl-1,10-phenanthroline)Cl3] | expressed apoptosis positive proteins, cleaved caspase 3, 7, 9, and poly ADP ribose polymerase (PARP) | about 14 pmol/μg | upregulated | induced large populations of cells to undergo early and late stage apoptosis | 1.84 |
